{"source": "paper PMC9757755", "about": "“Mechanisms of ion selectivity and throughput in the mitochondrial calcium uniporter” (Science Advances, 2022)", "molecular_target": "T1, TcMCU-EMRE (TcMCU-EMREEM2) (Tribolium castaneum, UniProt D6WIX5)", "T1 construct": "gene MCU; MCU without N-terminal domain (residues 1-168 removed), covalently fused to EMRE by flexible peptide linker; tetramer; Venus fusion removed by PreScission cleavage; expressed in Expi293 cells; purified, reconstituted in liposomes and planar bilayer; with Essential MCU regulator, mitochondrial", "T1 sequence (D6WIX5 169-367)": "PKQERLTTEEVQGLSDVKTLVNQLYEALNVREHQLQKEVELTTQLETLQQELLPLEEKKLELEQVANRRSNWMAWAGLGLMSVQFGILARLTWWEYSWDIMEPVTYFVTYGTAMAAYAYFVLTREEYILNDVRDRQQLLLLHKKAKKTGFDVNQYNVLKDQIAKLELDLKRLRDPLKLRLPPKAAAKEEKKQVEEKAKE", "T1 sequence (D6X268 1-90 partner)": "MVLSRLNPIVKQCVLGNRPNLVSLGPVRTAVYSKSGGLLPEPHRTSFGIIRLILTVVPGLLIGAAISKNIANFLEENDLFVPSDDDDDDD", "assay": "planar lipid bilayer electrophysiology, inhibition of macroscopic Ca2+ currents", "type": "biochemical", "conditions": "symmetric 40 mM CaCl2, -160 mV, pH 7.6, 22-24 C; RuRed titrated in trans chamber with 1 uM RuRed in cis; IMS-side blocker", "data": [{"smiles": "Cl.Cl.Cl.Cl.Cl.Cl.N.N.N.N.N.N.N.N.N.N.N.N.N.N.[O-2].[O-2].[Ru+3].[Ru+3].[Ru+4]", "note": "[ruthenium red]", "values": [{"measurement": "IC50", "value": "~40", "unit": "nM"}]}]}
